Measurements taken from patent publication EP3095787A1, “[…] ACTIVE COMPOUNDS AS DAG-LIPASE INHIBITORS” (Universiteit Leiden, priority 2015, dated 2016).
Entries after “also recorded” stand apart in the source; their conditions may differ.

Tested on: CA1 pyramidal neurons
Assay: Depolarization-induced suppression of inhibition (DSI) in hippocampal slices, whole-cell voltage clamp
Format: cell-based
Details: 10 µM bath application, pre-incubated at least 30 min; mouse hippocampal slices
Excerpt: Experimental evidence, which supports a role of DAGL-α in short-term synaptic plasticity, has been obtained through the use of genetically engineered mice that constitutively lack DAGL-α. DSI was absent in these DAGL-α knock-out mice, but not in their DAGL-β knock-out counter parts.
Horizontal slices (300 µm) of the hippocampus were obtained from male C57BL/6 mice (Harlan, the Netherlands) aged 14-19 days postnatal. Experiments were approved by the animal welfare committee of the University of Amsterdam. […] Inhibitory postsynaptic currents (IPSCs) were evoked with a glass stimulus electrode (filled with ACSF) positioned in the stratum radiatum, close to the recorded neuron. […]
Stock solutions (10 mM) of LEI105 were made in dimethylsulfoxide (DMSO), which was diluted to the final concentration (10 µM) in ACSF. […] Control experiments were performed on neurons recorded in slices pre-incubated with and in the continuous presence of 0.1 % DMSO.
For each CA1 neuron IPSCs were evoked with 5 sec intervals during a 2-min baseline period, prior to the stimulus evoking depolarization-induced suppression of inhibition (DSI). The maximum amplitude of each IPSC was determined and the mean value of the IPCS amplitudes over this period was calculated and used to normalize the evoked synaptic response. […]

## Cc1ccc(-c2cnc3nc(C(=O)CCCCCc4ccccc4)oc3c2)cc1 [Compound 25, 1-(6-(p-Tolyl)oxazolo[4,5-b]pyridin-2-yl)-6-phenylhexan-1-one]
  DSI: clear suppression of DSI; also recorded: DSI is reduced
